Article PMC3362318 (Invertebrate Neuroscience, 2012)

Experiments:
[1] = target: T1, Hco-L-AChR1 (Haemonchus contortus, UniProt A9XX24+D6MYE9+D6MYF3+D6MYF4); experiment: two-electrode voltage clamp, Xenopus oocytes, dose-response; format: cell-based
[2] = target: T2, Hco-L-AChR2 (Haemonchus contortus, UniProt D6MYE9+D6MYF3+D6MYF4); experiment: two-electrode voltage clamp, Xenopus oocytes, peak current; format: cell-based; conditions: agonist; -60 mV, 1 mM external CaCl2, pH 7.3, BAPTA-AM treated
T2 sequence (D6MYE9 21-498): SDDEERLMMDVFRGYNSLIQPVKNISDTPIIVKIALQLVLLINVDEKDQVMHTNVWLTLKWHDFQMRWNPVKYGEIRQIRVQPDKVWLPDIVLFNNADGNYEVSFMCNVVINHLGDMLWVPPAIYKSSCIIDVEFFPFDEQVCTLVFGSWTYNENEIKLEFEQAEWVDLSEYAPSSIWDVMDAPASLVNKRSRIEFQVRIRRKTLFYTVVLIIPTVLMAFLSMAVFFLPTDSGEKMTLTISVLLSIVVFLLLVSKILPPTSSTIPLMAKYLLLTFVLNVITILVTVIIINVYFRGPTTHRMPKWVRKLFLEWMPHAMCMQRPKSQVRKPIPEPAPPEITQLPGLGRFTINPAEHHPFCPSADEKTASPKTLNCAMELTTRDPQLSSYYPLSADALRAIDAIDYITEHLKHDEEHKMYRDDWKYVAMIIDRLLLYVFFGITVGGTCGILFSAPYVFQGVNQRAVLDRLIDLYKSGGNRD
T2 sequence (D6MYF3 20-512): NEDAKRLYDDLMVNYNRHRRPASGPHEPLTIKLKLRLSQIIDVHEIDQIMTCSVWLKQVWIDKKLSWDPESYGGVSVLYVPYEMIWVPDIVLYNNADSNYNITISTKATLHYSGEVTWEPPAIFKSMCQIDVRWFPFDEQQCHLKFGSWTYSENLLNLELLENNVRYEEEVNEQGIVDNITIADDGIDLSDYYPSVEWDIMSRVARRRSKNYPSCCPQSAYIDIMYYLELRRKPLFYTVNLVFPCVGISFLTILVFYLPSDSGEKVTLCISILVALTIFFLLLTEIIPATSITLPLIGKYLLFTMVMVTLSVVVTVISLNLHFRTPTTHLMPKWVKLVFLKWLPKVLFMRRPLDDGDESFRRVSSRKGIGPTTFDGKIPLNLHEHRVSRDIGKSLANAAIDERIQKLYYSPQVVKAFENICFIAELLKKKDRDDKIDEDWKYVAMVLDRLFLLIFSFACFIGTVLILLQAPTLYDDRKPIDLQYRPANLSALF
T2 sequence (D6MYF4 22-504): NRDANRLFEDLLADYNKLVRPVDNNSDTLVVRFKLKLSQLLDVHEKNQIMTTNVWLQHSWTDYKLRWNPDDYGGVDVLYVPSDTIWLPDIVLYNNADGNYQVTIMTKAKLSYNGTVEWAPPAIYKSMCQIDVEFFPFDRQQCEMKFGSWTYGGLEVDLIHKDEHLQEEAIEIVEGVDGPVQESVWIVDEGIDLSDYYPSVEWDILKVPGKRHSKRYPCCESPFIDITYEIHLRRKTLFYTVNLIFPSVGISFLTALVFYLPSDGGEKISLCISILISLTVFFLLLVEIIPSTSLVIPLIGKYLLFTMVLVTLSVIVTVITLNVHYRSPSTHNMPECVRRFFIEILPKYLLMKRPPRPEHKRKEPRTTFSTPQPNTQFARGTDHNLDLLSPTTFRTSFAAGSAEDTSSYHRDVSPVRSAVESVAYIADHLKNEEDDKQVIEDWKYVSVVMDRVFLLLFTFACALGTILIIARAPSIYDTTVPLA

[3] = target: T1, Hco-L-AChR1; conditions: agonist; 30 μM; -60 mV, 1 mM external CaCl2, pH 7.3, BAPTA-AM treated

T1 sequence (A9XX24 19-536, one chain of several): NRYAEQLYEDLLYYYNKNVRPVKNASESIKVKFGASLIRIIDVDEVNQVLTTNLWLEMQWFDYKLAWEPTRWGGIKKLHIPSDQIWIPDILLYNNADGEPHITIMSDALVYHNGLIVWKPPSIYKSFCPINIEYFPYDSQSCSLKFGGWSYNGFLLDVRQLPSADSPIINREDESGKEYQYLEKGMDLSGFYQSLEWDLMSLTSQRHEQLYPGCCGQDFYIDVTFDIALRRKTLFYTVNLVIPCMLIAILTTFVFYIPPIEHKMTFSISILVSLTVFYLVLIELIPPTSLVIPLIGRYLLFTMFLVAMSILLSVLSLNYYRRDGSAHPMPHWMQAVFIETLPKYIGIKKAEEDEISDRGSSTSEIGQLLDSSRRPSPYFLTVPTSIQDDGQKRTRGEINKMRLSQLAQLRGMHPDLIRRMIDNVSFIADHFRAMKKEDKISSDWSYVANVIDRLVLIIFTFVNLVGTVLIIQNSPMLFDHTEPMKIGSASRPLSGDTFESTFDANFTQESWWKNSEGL

## c1ccc([C@H]2CN3CCSC3=N2)cc1 [Lev, levamisole]
[1]
  EC50: 6.08 ± 0.3 µM
[2]
  two-electrode voltage clamp, Xenopus oocytes, peak current: Hco-L-AChR2 potency series was: pyrantel > acetylcholine > nicotine > levamisole

## C[N+](C)(CCOc1ccccc1)Cc1ccccc1 [Beph, bephenium]
[1]
  EC50: 7.7 ± 0.6 µM

## CN1CCCN=C1/C=C/c1cccs1 [Pyr, pyrantel]
[2]
  two-electrode voltage clamp, Xenopus oocytes, peak current: Hco-L-AChR2 potency series was: pyrantel > acetylcholine > nicotine > levamisole
[3]
  two-electrode voltage clamp, Xenopus oocytes, peak current: levamisole > acetylcholine > pyrantel > nicotine for the Hco-L-AChR1

## CN1CCC[C@H]1c1cccnc1 [Nic, nicotine]
[2]
  two-electrode voltage clamp, Xenopus oocytes, peak current: Hco-L-AChR2 potency series was: pyrantel > acetylcholine > nicotine > levamisole
